≈ marks a conversion by molar mass, not a printed value. Where two headings read alike, the source gives them in different places.
Assays:
Type in all cases: cell-based
EC878 E. coli tolC = test: broth dilution MIC, E. coli EC878; conditions: Escherichia coli
Summary of the method: (§1)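 Values are broth dilution MICs measured according to CLSI standard procedure; the macrolide azithromycin was tested as control.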

[1] = system: SA418 S. aureus ermA negative msrA positive; test: broth dilution MIC, S. aureus SA418; conditions: Staphylococcus aureus
Excerpt: (§2) We have collected MIC data for a total of 50 novel macrolides that this platform has produced against over 21 unique strains of B. subtilis, E. coli, S. aureus, S. pneumoniae, and H. influenzae, including several multidrug-resistant strains, with a special focus on macrolide resistant mechanisms (vide supra). Azithromycin was included as a control macrolide. CLSI standard procedures for broth dilution MIC determination were used. […] These genotypes can be constitutive or inducible. The finding that C4-epi (unnatural) isomers of the “azaketolide” macrolide class have enhanced activities relative to C4 natural isomers is very exciting.

[2] = system: S. aureus (Newman, clinical isolate); test: MIC, S. aureus Newman; conditions: Staphylococcus aureus, S. aureus (Newman, clinical isolate), round 1
Summary of the method: as §1

[3] = system: HI175 H. influenzae ATCC49247; test: broth dilution MIC, H. influenzae HI175; conditions: Haemophilus influenzae
Excerpt: as §2

[4] = system: Spn160 S. pneumoniae ermB unknown mefA positive; test: broth dilution MIC, S. pneumoniae Spn160; conditions: Streptococcus pneumoniae
Excerpt: as §2

[5] = system: SA101 S. aureus ATCC29213; test: broth dilution MIC, S. aureus SA101; conditions: Staphylococcus aureus, ATCC29213, SA101 S. aureus ATCC29213; read-out: MIC
Summary of the method: as §1

BS1725 B. subtilis ermC = test: broth dilution MIC, B. subtilis BS1725; conditions: Bacillus subtilis, BS1725 B. subtilis ermC (+ery)
Summary of the method: as §1

K. pneumoniae strains = test: MIC against K. pneumoniae strains (Table M8); conditions: Klebsiella pneumoniae, K. pneumoniae 10031
S. aureus strains = test: MIC against S. aureus strains (Table M7); conditions: for MIC: Staphylococcus aureus
Summary of the method: as §1

H. influenzae strains = test: MIC against H. influenzae strains (Table M8); conditions: Haemophilus influenzae
Summary of the method: as §1

E. coli strains = test: MIC against E. coli strains (Table M7); conditions: Escherichia coli, ATCC25922, E. coli ATCC 25922
Summary of the method: as §1

[6] = system: SA557 S. aureus ermA unknown msrA positive; test: broth dilution MIC, S. aureus SA557; conditions: Staphylococcus aureus; SA557 S. aureus ermA unknown msrA positive; read-out: MIC
Excerpt: as §2

[7] = system: Spn1537 S. pneumoniae ermB positive mefA positive; test: broth dilution MIC, S. pneumoniae Spn1537; conditions: Streptococcus pneumoniae
Excerpt: as §2

[8] = system: SA183 S. aureus ermA positive msrA unknown; test: broth dilution MIC, S. aureus SA183; conditions: Staphylococcus aureus
Excerpt: as §2

[9] = system: Spn 106 S. pneumonia ATCC49619; test: broth dilution MIC, S. pneumoniae Spn 106; conditions: Streptococcus pneumoniae; Spn 106 S. pneumonia ATCC49619; read-out: MIC
Excerpt: as §2

[10] = system: SA506 S. aureus ermA positive msrA unknown; test: broth dilution MIC, S. aureus SA506; conditions: Staphylococcus aureus
Excerpt: as §2

HI281 H. influenzae = test: broth dilution MIC, H. influenzae HI281; conditions: Haemophilus influenzae
Excerpt: as §2

[11] = system: SA1707 S. aureus ermA negative msrA positive; test: broth dilution MIC, S. aureus SA1707; conditions: Staphylococcus aureus
Excerpt: as §2

[12] = system: SA1708 S. aureus ermA positive msrA negative; test: broth dilution MIC, S. aureus SA1708; conditions: Staphylococcus aureus
Excerpt: as §2

S. pneumoniae strains = test: MIC against S. pneumoniae strains (Tables M7, M8); conditions: for MIC: Streptococcus pneumoniae
Excerpt: CLSI standard procedures for broth dilution MIC determination were used. […] These genotypes can be constitutive or inducible.

E. faecalis strains = test: MIC against E. faecalis strains (Table M8); conditions: Enterococcus faecalis, E. faecalis 29212
[13] = system: Spn1509 S. pneumoniae ermB positive mefA negative; test: broth dilution MIC, S. pneumoniae Spn1509; conditions: Streptococcus pneumoniae; Spn1509 S. pneumoniae ermB positive mefA negative; read-out: MIC
Excerpt: as §2

A. baumannii strains = test: MIC against A. baumannii strains (Table M8); conditions: Acinetobacter baumannii, BAA747, A. baumannii BAA747-1
E. coli (MC4100) = test: MIC, E. coli MC4100; conditions: Escherichia coli, round 1, read-out: MIC
Summary of the method: as §1

[14] = system: BS1723 B. subtilis BS168 WT wild type; test: broth dilution MIC, B. subtilis BS1723; conditions: Bacillus subtilis, BS1723 B. subtilis BS168 WT wild type; read-out: MIC
Summary of the method: as §1

EC882 E. coli imp = test: broth dilution MIC, E. coli EC882; conditions: Escherichia coli
Summary of the method: as §1

EC107 E. coli ATCC25922 = test: broth dilution MIC, E. coli EC107; conditions: Escherichia coli, read-out: MIC
Summary of the method: as §1

[15] = system: Spn1427 S. pneumoniae ermB positive mefA negative; test: broth dilution MIC, S. pneumoniae Spn1427; conditions: Streptococcus pneumoniae
Excerpt: as §2

[16] = system: Spn1533 S. pneumoniae ermB positive mefA positive; test: broth dilution MIC, S. pneumoniae Spn1533; conditions: Streptococcus pneumoniae
Excerpt: as §2

[17] = ATCC29213, S. aureus ATCC 29213, read-out: MIC S. aureus (ATCC 29213)
[18] = S. aureus 506, read-out: MIC S. aureus (506)
[19] = S. aureus 1708, read-out: MIC S. aureus (1708)
[20] = USA300, S. aureus USA300, read-out: MIC S. aureus (USA300)
[21] = H. influenzae 49247, read-out: MIC H. influenzae (49247)
[22] = H. influenzae 49766, read-out: MIC H. influenzae (49766)
[23] = S. pneumoniae 1509, read-out: MIC S. pneumoniae (1509)
[24] = S. pneumoniae 1533, read-out: MIC S. pneumoniae (1533)
[25] = S. pneumoniae 1537, read-out: MIC S. pneumoniae (1537)
[26] = Spn160 S. pneumoniae ermB unknown mefA positive, read-out: MIC

## CC[C@H]1OC(=O)C(C)(F)C(=O)[C@H](C)[C@@H](O[C@@H]2OC(C)CC(N(C)C)C2O)[C@](C)(OC)C[C@@H](C)CN[C@H](C)[C@H]2N(CCCCn3cc(-c4ccccn4)nn3)C(=O)O[C@]12C (stereo partly drawn) [FSM-20738]
EC878 E. coli tolC
  MIC: 1 µg/mL (≈ 1.2 µM)
[1]
  MIC: 1 µg/mL (≈ 1.2 µM)
[2]
  MIC: 1 µg/mL (≈ 1.2 µM)
[3]
  MIC: 0.5 to 8 µg/mL (≈ 0.601 to 9.62 µM)
[4]
  MIC: 0.0625 to 1 µg/mL (≈ 0.0751 to 1.2 µM)
[5]
  MIC: 0.5 to 1 µg/mL (≈ 0.601 to 1.2 µM)
BS1725 B. subtilis ermC
  MIC: 4 µg/mL (≈ 4.81 µM)
K. pneumoniae strains
  MIC: 4 µg/mL (≈ 4.81 µM)
S. aureus strains; [17]
  MIC: 0.5 µg/mL (≈ 0.601 µM)
S. aureus strains; [18]
  MIC: > 32 µg/mL
S. aureus strains; [19]
  MIC: 0.5 µg/mL (≈ 0.601 µM)
S. aureus strains; [20]
  MIC: 1 µg/mL (≈ 1.2 µM)
H. influenzae strains; [21]
  MIC: 0.5 µg/mL (≈ 0.601 µM)
H. influenzae strains; [22]
  MIC: 4 µg/mL (≈ 4.81 µM)
E. coli strains
  MIC: 8 µg/mL (≈ 9.62 µM)
[6]
  MIC: 1 µg/mL (≈ 1.2 µM)
[7]
  MIC: > 32 µg/mL
[8]
  MIC: > 32 µg/mL
[9]
  MIC: 0.0156 to 0.25 µg/mL (≈ 0.0187 to 0.3 µM)
[10]
  MIC: > 32 µg/mL
HI281 H. influenzae
  MIC: 4 to 32 µg/mL (≈ 4.81 to 38.5 µM)
[11]
  MIC: 1 µg/mL (≈ 1.2 µM)
[12]
  MIC: 2 µg/mL (≈ 2.4 µM)
S. pneumoniae strains; [23]
  MIC: 2 µg/mL (≈ 2.4 µM)
S. pneumoniae strains; [24]
  MIC: > 32 µg/mL
S. pneumoniae strains; [25]
  MIC: > 32 µg/mL
S. pneumoniae strains; read-out: MIC S. pneumonae (160)
  MIC: ≤ 0.0625 µg/mL
S. pneumoniae strains; read-out: MIC S. pneumoniae (49619)
  MIC: ≤ 0.0625 µg/mL
E. faecalis strains
  MIC: 0.125 µg/mL (≈ 0.15 µM)
[13]
  MIC: 0.5 to 8 µg/mL (≈ 0.601 to 9.62 µM)
A. baumannii strains
  MIC: 32 µg/mL (≈ 38.5 µM)
E. coli (MC4100)
  MIC: 8 µg/mL (≈ 9.62 µM)
[14]
  MIC: 0.25 µg/mL (≈ 0.3 µM)
EC882 E. coli imp
  MIC: 0.0625 µg/mL (≈ 0.0751 µM)
EC107 E. coli ATCC25922
  MIC: 8 µg/mL (≈ 9.62 µM)
[15]
  MIC: > 32 µg/mL

## CC[C@H]1OC(=O)C(C)(F)C(=O)[C@H](C)[C@@H](O[C@@H]2OC(C)CC(N(C)C)C2O)[C@](C)(OC)C[C@@H](C)CN[C@H](C)[C@H]2N(CCCCn3cc(-c4cccc(N)c4)nn3)C(=O)O[C@]12C (stereo partly drawn) [FSM-20795]
[16]
  MIC: 16 µg/mL (≈ 18.9 µM)
[1]
  MIC: 0.5 to 1 µg/mL (≈ 0.591 to 1.18 µM)
[3]
  MIC: 1 to 2 µg/mL (≈ 1.18 to 2.36 µM)
[4]; [26]
  MIC: 0.0312 µg/mL (≈ 0.0369 µM)
[5]
  MIC: 0.25 to 0.5 µg/mL (≈ 0.295 to 0.591 µM)
K. pneumoniae strains
  MIC: 2 µg/mL (≈ 2.36 µM)
S. aureus strains; S. aureus 1708
  MIC S. aureus (1708): 0.5 µg/mL (≈ 0.591 µM)
S. aureus strains; [17]
  MIC: 0.5 µg/mL (≈ 0.591 µM)
S. aureus strains; S. aureus 183, read-out: MIC S. aureus (183)
  MIC: > 32 µg/mL
S. aureus strains; [18]
  MIC: > 32 µg/mL
S. aureus strains; [19]
  MIC: 0.25 µg/mL (≈ 0.295 µM)
S. aureus strains; [20]
  MIC: 1 µg/mL (≈ 1.18 µM)
H. influenzae strains; [21]
  MIC: 0.5 µg/mL (≈ 0.591 µM)
H. influenzae strains; [22]
  MIC: 4 µg/mL (≈ 4.73 µM)
E. coli strains
  MIC: 4 µg/mL (≈ 4.73 µM)
[6]
  MIC: 0.25 to 0.5 µg/mL (≈ 0.295 to 0.591 µM)
[7]
  MIC: 32 µg/mL (≈ 37.8 µM)
[8]
  MIC: > 32 µg/mL
[9]
  MIC: ≤ 0.0156 µg/mL
[10]
  MIC: > 32 µg/mL
HI281 H. influenzae
  MIC: 4 to 8 µg/mL (≈ 4.73 to 9.46 µM)
[11]
  MIC: 0.5 to 1 µg/mL (≈ 0.591 to 1.18 µM)
[12]
  MIC: 0.5 µg/mL (≈ 0.591 µM)
S. pneumoniae strains; S. pneumoniae 1509
  MIC S. pneumoniae (1509): 1 µg/mL (≈ 1.18 µM)
S. pneumoniae strains; S. pneumoniae 160, read-out: MIC S. pneumonae (160)
  MIC: ≤ 0.0625 µg/mL
S. pneumoniae strains; [23]
  MIC: 0.5 µg/mL (≈ 0.591 µM)
S. pneumoniae strains; [24]
  MIC: > 32 µg/mL
S. pneumoniae strains; [25]
  MIC: > 32 µg/mL
S. pneumoniae strains; S. pneumoniae 49619, read-out: MIC S. pneumoniae (49619)
  MIC: ≤ 0.0625 µg/mL
E. faecalis strains
  MIC: 0.125 µg/mL (≈ 0.148 µM)
[13]
  MIC: 0.125 to 0.25 µg/mL (≈ 0.148 to 0.295 µM)
A. baumannii strains
  MIC: 16 µg/mL (≈ 18.9 µM)
[15]
  MIC: 1 to 2 µg/mL (≈ 1.18 to 2.36 µM)

## CC[C@H]1OC(=O)[C@H](C)C(=O)C[C@@H](O[C@@H]2OC(C)CC(N(C)C)C2O)[C@](C)(OC)C[C@@H](C)C(=O)N[C@H](C)[C@H]2N(CCCCn3cc(-c4ccccn4)nn3)C(=O)O[C@]12C (stereo partly drawn) [FSM-20739]
[16]
  MIC: > 32 µg/mL
[1]
  MIC: > 32 µg/mL
[3]
  MIC: > 32 µg/mL
[4]; [26]
  MIC: > 32 µg/mL
[5]
  MIC: > 32 µg/mL
[6]
  MIC: > 32 µg/mL
[7]
  MIC: > 32 µg/mL
[8]
  MIC: > 32 µg/mL
[9]
  MIC: 32 µg/mL (≈ 39.3 µM)
[10]
  MIC: > 32 µg/mL
HI281 H. influenzae
  MIC: 32 µg/mL (≈ 39.3 µM)
[11]
  MIC: > 32 µg/mL
[12]
  MIC: > 32 µg/mL
[13]
  MIC: > 32 µg/mL
[15]
  MIC: > 32 µg/mL

From US9982005B2, “Macrolides and methods of their preparation and use” (President and Fellows of Harvard College, priority 2013, dated 2018)
